Holding throughout (experiment): biochemical
Common to all, as to format: biochemical

Assay [1] deals with T1, 382 unique human kinases (Homo sapiens, UniProt Q9Y3S1).
T1 construct: purchased Reaction Biology (HotSpot contract assay)
The following applies: WNK2, 10 uM; for remaining activity at 10 µM: read-out: % Enzyme Activity (relative to DMSO controls).

Assay [2] addresses T2, 382 unique human kinases (Homo sapiens, UniProt P52564).
T2 construct: purchased Reaction Biology (HotSpot contract assay)
T2 sequence (P52564 1-334): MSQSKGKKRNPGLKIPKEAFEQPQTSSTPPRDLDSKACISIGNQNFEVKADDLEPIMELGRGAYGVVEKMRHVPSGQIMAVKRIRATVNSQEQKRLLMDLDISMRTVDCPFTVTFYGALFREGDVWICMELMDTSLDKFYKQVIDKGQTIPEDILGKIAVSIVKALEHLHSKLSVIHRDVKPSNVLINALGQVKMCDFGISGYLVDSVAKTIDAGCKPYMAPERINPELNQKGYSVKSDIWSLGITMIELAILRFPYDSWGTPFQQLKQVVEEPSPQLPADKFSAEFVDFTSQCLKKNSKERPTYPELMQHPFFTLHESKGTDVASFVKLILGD
The following applies: MKK6, 10 uM; for remaining activity at 10 µM: read-out: % Enzyme Activity (relative to DMSO controls).

For assay [3], the target named is T3, 382 unique human kinases (Homo sapiens, UniProt O60674, V617F).
T3 construct: purchased Reaction Biology (HotSpot contract assay)
T3 sequence (O60674 whole entry V617F): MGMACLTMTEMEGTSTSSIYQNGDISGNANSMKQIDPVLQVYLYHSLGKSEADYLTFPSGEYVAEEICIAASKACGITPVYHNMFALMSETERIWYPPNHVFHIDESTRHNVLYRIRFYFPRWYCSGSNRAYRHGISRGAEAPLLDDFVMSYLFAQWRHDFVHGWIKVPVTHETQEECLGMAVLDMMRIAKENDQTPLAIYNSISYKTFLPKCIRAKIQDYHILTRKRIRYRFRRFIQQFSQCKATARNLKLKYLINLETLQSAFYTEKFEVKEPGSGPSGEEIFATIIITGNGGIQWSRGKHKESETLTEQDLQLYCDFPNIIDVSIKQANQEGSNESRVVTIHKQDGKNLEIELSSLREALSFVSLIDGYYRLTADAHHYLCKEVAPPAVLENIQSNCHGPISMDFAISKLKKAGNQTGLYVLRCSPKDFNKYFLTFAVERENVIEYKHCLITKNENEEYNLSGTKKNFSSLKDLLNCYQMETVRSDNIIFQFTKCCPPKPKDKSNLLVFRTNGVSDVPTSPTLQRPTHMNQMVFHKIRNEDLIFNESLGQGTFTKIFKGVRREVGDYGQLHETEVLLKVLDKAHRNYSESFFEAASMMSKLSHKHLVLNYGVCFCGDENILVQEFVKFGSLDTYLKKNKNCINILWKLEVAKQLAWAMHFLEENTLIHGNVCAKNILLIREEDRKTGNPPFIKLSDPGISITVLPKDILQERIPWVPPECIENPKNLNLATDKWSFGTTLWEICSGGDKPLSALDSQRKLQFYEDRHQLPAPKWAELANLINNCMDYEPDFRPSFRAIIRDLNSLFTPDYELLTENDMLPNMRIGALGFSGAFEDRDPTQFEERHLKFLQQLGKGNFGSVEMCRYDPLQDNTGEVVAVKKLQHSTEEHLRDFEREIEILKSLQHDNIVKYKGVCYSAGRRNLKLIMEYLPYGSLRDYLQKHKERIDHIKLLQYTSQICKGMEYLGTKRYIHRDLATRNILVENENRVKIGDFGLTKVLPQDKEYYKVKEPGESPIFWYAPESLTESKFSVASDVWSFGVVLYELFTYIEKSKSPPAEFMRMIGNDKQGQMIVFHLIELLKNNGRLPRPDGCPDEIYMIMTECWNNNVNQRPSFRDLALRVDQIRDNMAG
As to conditions: kinase JAK2 (V617F), compound 10 uM; for remaining activity at 10 µM: read-out: % Enzyme Activity (relative to DMSO controls).

For assay [4], the target named is T4, 382 unique human kinases (Homo sapiens, UniProt P06493).
T4 construct: purchased Reaction Biology (HotSpot contract assay)
T4 sequence (P06493 whole entry): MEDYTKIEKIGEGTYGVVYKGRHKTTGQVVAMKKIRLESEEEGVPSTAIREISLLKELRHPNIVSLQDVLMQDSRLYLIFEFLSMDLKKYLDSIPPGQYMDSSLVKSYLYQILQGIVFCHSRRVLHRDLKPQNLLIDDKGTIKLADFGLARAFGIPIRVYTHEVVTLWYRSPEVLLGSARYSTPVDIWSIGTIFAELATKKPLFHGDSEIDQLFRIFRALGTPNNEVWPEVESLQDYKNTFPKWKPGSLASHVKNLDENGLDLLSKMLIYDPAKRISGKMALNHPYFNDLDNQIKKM
The following applies: for remaining activity at 10 µM: read-out: % Enzyme Activity (relative to DMSO controls).

Assay [5] addresses T5, 382 unique human kinases (Homo sapiens, UniProt P49137).
T5 construct: purchased Reaction Biology (HotSpot contract assay)
As to conditions: MAPKAPK2, compound at 10 uM, duplicate values; for remaining activity at 10 µM: read-out: % Enzyme Activity (relative to DMSO controls).

For assay [6], the target named is T6, 382 unique human kinases (Homo sapiens, UniProt Q02750, P124L).
T6 construct: purchased Reaction Biology (HotSpot contract assay)
The following applies: MEK1 (P124L), 10 uM; for remaining activity at 10 µM: read-out: % Enzyme Activity (relative to DMSO controls).

For assay [7], the target named is T7, 382 unique human kinases (Homo sapiens, UniProt P17252).
T7 construct: purchased Reaction Biology (HotSpot contract assay)
As to conditions: PKCa, 10 uM; for remaining activity at 10 µM: read-out: % Enzyme Activity (relative to DMSO controls).

The target in assay [8] is T8, 382 unique human kinases (Homo sapiens, UniProt P00519, Q252H).
T8 construct: purchased Reaction Biology (HotSpot contract assay)
As to conditions: ABL1 (Q252H), [ATP] 20 µM, compound 10 uM; for remaining activity at 10 µM: read-out: % Enzyme Activity (relative to DMSO controls).

Assay [9] addresses T9, 382 unique human kinases (Homo sapiens, UniProt Q9H4B4).
T9 construct: purchased Reaction Biology (HotSpot contract assay)
The following applies: PLK3, [ATP] 100 µM, compound 10 uM; for remaining activity at 10 µM: read-out: % Enzyme Activity (relative to DMSO controls).

The target in assay [10] is T10, 382 unique human kinases (Homo sapiens, UniProt Q16620).
T10 construct: purchased Reaction Biology (HotSpot contract assay)
T10 sequence (Q16620 32-822): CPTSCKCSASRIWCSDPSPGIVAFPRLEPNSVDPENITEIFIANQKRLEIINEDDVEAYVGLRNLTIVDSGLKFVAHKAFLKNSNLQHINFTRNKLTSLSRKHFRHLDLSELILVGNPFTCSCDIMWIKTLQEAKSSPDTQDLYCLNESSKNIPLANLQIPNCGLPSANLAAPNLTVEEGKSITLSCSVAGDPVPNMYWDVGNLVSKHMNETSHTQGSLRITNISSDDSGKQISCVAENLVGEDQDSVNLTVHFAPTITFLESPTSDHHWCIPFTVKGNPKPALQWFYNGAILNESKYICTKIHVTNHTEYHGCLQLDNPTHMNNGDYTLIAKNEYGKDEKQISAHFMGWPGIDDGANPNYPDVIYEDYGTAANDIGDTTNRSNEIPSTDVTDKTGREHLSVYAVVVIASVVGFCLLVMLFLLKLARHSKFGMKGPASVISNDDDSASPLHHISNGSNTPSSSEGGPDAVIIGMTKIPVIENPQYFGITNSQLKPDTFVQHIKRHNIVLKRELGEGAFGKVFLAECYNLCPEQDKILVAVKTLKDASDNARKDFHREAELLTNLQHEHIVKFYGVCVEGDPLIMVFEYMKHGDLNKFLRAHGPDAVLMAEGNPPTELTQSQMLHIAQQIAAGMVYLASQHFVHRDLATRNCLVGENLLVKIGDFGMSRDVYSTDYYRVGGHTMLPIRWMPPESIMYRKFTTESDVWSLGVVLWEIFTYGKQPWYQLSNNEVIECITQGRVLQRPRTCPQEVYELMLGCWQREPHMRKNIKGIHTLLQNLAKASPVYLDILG
As to conditions: TRKB, [ATP] 50 µM, compound 10 uM; for remaining activity at 10 µM: read-out: % Enzyme Activity (relative to DMSO controls).

In assay [11] the target is T11, 382 unique human kinases (Homo sapiens, UniProt P45985).
T11 construct: purchased Reaction Biology (HotSpot contract assay)
T11 sequence (P45985 1-399): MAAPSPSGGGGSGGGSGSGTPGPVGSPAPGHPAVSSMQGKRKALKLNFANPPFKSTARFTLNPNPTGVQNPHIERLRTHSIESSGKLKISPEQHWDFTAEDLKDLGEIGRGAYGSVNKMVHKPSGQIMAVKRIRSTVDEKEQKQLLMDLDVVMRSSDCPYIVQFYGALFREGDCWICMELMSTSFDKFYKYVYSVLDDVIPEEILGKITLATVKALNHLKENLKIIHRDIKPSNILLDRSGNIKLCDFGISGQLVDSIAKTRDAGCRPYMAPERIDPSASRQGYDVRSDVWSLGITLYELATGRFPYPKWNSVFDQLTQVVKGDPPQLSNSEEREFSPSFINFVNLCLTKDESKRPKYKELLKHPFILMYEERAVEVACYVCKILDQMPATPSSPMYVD
As to conditions: MKK4, [ATP] 2.5 µM, compound 10 uM; for remaining activity at 10 µM: read-out: % Enzyme Activity (relative to DMSO controls).

In assay [12] the target is T12, 382 unique human kinases (Homo sapiens, UniProt Q15118).
T12 construct: purchased Reaction Biology (HotSpot contract assay)
The following applies: PDK1/PDHK1, [ATP] 50 µM, compound 10 uM; for remaining activity at 10 µM: read-out: % Enzyme Activity (relative to DMSO controls).

The target of assay [13] is T13, 382 unique human kinases (Homo sapiens, UniProt P43250).
T13 construct: purchased Reaction Biology (HotSpot contract assay)
The following applies: GRK6, 10 uM; for remaining activity at 10 µM: read-out: % Enzyme Activity (relative to DMSO controls).

The mark [14] stands for this setting: kinase CDK1/cyclin A, compound 10 uM.
Setting [15] is: kinase CDK1/cyclin E, compound 10 uM.

The structures appear in SMILES notation. Like-named read-outs stand apart in the source and are kept apart here.

T5 sequence (P49137 whole entry): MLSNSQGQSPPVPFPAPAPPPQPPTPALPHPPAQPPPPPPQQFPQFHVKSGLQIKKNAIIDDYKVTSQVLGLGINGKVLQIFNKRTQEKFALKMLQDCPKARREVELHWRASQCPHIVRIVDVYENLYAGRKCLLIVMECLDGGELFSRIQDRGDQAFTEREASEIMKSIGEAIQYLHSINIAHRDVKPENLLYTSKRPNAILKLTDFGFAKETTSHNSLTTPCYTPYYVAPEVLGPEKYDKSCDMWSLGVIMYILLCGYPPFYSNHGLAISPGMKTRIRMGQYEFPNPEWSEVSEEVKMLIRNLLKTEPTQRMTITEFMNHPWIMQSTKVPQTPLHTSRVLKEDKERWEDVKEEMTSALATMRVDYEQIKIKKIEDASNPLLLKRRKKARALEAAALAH
T1 sequence (Q9Y3S1 whole entry): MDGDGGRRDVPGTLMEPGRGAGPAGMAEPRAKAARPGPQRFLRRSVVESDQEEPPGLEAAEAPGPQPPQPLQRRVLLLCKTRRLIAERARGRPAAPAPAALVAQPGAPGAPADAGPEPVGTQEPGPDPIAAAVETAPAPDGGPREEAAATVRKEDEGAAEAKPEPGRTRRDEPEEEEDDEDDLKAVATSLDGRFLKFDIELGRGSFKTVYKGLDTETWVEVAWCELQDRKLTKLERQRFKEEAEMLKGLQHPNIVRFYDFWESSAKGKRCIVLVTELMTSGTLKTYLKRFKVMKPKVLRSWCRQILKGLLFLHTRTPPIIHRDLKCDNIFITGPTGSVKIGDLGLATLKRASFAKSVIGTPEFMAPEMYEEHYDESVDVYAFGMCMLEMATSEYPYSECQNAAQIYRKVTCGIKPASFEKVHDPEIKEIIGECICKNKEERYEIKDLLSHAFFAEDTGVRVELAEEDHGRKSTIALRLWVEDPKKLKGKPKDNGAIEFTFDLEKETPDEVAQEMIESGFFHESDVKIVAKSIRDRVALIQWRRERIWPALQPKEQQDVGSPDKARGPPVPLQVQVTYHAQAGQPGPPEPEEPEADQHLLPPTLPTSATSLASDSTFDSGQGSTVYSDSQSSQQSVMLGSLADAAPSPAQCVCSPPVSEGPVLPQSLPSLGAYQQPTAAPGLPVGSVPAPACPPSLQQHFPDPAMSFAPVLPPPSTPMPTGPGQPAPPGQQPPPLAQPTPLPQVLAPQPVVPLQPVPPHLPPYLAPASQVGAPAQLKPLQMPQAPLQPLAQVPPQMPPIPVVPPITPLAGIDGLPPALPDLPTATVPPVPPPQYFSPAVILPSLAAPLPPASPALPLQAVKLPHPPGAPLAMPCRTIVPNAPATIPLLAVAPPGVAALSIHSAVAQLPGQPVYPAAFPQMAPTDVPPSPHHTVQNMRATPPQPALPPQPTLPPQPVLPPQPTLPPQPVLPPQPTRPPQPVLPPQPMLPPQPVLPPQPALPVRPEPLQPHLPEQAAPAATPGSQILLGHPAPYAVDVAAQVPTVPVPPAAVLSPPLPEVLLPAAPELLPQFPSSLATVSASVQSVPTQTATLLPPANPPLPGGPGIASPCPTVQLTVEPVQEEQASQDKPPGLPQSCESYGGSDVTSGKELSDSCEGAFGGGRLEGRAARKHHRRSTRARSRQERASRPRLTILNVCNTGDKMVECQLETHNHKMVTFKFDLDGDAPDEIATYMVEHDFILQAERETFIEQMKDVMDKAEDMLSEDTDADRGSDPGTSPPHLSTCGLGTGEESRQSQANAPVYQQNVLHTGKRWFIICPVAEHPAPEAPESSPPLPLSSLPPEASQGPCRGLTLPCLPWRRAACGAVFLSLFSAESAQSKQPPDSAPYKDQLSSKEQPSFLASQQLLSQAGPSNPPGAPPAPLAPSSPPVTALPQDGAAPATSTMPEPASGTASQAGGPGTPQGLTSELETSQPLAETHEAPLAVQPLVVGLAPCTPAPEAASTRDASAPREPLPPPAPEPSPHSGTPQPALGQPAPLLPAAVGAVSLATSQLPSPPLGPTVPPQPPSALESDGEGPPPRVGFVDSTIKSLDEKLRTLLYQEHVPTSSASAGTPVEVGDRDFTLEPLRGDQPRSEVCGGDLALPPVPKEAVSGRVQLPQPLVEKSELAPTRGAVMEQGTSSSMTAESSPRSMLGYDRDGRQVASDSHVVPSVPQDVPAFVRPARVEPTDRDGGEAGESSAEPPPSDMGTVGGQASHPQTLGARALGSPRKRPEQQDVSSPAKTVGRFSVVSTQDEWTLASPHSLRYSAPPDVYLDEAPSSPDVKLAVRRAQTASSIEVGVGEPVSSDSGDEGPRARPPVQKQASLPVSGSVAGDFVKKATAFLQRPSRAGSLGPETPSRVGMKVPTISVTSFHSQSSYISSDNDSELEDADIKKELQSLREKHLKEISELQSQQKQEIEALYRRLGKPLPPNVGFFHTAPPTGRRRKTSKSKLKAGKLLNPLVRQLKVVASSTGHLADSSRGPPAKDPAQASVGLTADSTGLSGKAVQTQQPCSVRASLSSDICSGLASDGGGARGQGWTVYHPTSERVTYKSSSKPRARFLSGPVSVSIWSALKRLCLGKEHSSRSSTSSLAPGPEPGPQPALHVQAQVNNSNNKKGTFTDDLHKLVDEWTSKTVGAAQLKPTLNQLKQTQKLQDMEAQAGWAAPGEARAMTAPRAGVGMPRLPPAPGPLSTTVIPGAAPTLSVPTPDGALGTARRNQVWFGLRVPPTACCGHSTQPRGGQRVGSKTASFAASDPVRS

On to `CC(C)c1cc(-c2n[nH]c(=O)n2-c2ccc3c(ccn3C)c2)c(O)cc1O` [Ganetespib (STA9090)], for which the remaining activity at 10 µM at 382 unique human kinases [1] stood at 59.5%; on 382 unique human kinases [2] it was 72.9%; on 382 unique human kinases [3] it was 83.1%; at 382 unique human kinases [4] (CDK1/cyclin B, 10 uM), 78.5%; at 382 unique human kinases [4] (setting [14]), 83.4%; on 382 unique human kinases [4] (setting [15]) it was 81.7%. Moreover, the remaining activity at 10 µM at 382 unique human kinases [5] stood at 102%; at 382 unique human kinases [6], 73.7%.

In the case of `CC(C)c1cc(-c2n[nH]c(=O)n2-c2ccc3c(ccn3C)c2)c(O)cc1O` [Ganetespib], the remaining activity at 10 µM on 382 unique human kinases [7] was 94.5%; on 382 unique human kinases [8] it was 3.59%; at 382 unique human kinases [9], 39.6%; at 382 unique human kinases [10], 21.5%; on 382 unique human kinases [11], 55.2%; on 382 unique human kinases [12] it was 54.4%. At 382 unique human kinases [13], the remaining activity at 10 µM worked out at 97.2%.

`CCNC(=O)c1noc(-c2cc(C(C)C)c(O)cc2O)c1-c1ccc(CN2CCOCC2)cc1` [Luminespib (AUY-922)]: the “% Enzyme Activity (relative to DMSO controls)” value on 382 unique human kinases [1] was 106.80%; at 382 unique human kinases [2] it was 98.81%; on 382 unique human kinases [3], 91.38%; on 382 unique human kinases [4] (CDK1/cyclin B, 10 uM), 86.64%; at 382 unique human kinases [4] (setting [14]), 96.86%; at 382 unique human kinases [4] (setting [15]), 108.79%. Further, the “% Enzyme Activity (relative to DMSO controls)” value at 382 unique human kinases [5] was 105.08%; at 382 unique human kinases [6], 99.77%. Besides, the remaining activity at 10 µM at 382 unique human kinases [1] was determined as 107%; on 382 unique human kinases [2], 100%; at 382 unique human kinases [3], 91.7%; at 382 unique human kinases [4] (CDK1/cyclin B, 10 uM), 86.8%; at 382 unique human kinases [4] (setting [14]) it was 97.5%; at 382 unique human kinases [4] (setting [15]) it was 113%. The figures for the remaining activity at 10 µM at 382 unique human kinases [5] and on 382 unique human kinases [6] were 106% and 102%, respectively.

Regarding `CCNC(=O)c1noc(-c2cc(C(C)C)c(O)cc2O)c1-c1ccc(CN2CCOCC2)cc1` [Luminespib], the “% Enzyme Activity (relative to DMSO controls)” value on 382 unique human kinases [7] is on record as 92.02%; at 382 unique human kinases [8], 5.25%; at 382 unique human kinases [9] it was 99.40%; at 382 unique human kinases [10] it was 97.46%; at 382 unique human kinases [11], 93.71%; at 382 unique human kinases [12], 56.21%. The “% Enzyme Activity (relative to DMSO controls)” value on 382 unique human kinases [13] is reported as 96.43%. Besides, the remaining activity at 10 µM on 382 unique human kinases [7] turned out to be 94%; at 382 unique human kinases [8] it was 5.39%; on 382 unique human kinases [9] it was 99.4%; on 382 unique human kinases [10], 98.1%; on 382 unique human kinases [11] it was 98.4%; on 382 unique human kinases [12], 60%. The remaining activity at 10 µM at 382 unique human kinases [13] was 97.2%.
